# Laboratory results taken from patent US20220033448A1, “METHODS FOR AGGREGATION OF PROTEINS” (priority 2011, published 2022).
# Like-named read-outs stand apart in the source and are kept apart here. No end group written: not given here.
# Tests used:
# [1] = test system: negative regulator of genetic competence CIpC/mecB; assay: SOSPA shotgun proteomic analysis of soluble / insoluble fractions; type: cell-based, S.aureus and B.cereus; settings: C30 treated vs untreated cells
# Description: The aggregation technology is based on the assumption that short amino acid stretches, with a high propensity of aggregation (e.g. assessed by the TANGO score) and that are derived from a target protein, can induce aggregation of that protein. This hypothesis has been confirmed by a shotgun proteomic analysis of the insoluble fraction. If we assume that our aggregator peptides work through specific interaction with its target and causes its aggregation, it is expected that the target enters the insoluble fraction. For this reason we've decided to split the lysate into 2 fractions: insoluble and soluble and compare these with untreated cell fractions. Proteins present in both treated (TC30) and untreated (NT) insoluble fractions were assumed to present a background of non-specific naturally non-soluble proteins. Additionally we've examined soluble fractions of both treated and untreated bacteria and as expected the protein of interest was present only in the untreated fraction. This means that the following criteria for target search were used:
# 1) potential aggregation targets are proteins obtained from the list of proteins in the Insoluble fraction of C30 treated cells minus proteins in the Insoluble fraction of non-treated cells […]
# [2] = test system: S. haemolyticus; assay: MIC, microbroth dilution; settings: planktonic, 18 hours
# Procedure: (§2) Bacteria were grown in a shaking incubator at 37° C. and 160rpm in 50 ml BHI , using individual colonies retrieved from a fresh overnight TSA-sheep blood plate. The cultures were grown to a density of approximately 1×10^8cells/ml and then diluted to 5×10^5 cells/ml in CAMHB (Mc Farland 0.5). Each well contained 100p.I (50p.I of peptide containing MHB plus 50 μl inoculum). The final cell density was 1×10^5 to 5×10^5/ml. After addition of the cell suspension, plates were incubated at 37° C. for 18 to 24 hours. The optical density at 590 nm (OD590) of each well was measured after 5 seconds of shaking the plate using Perkin Elmer spectrophotometer (1420 Multilabel Counter Vicotr 3). […] Each well, where no growth was observed, was also plated on TSA-sheep blood agar plates, incubated at 37° C. overnight and visually inspected.
# [3] = test system: S. aureus
# Procedure: as §2
# A microbroth dilution method was used with twofold serial dilutions in CAMHB (according to EMEA guidelines) was used for screening of peptide activity, with concentrations ranging from 0.3 μg/mIto 200 μg/ml.
# [4] = test system: VRE strains; assay: MIC, microbroth dilution; settings: planktonic, 18 hours
# Procedure: as §2
# [5] = test system: Candida glabrata ATCC2001; assay: C. glabrata adhesion and biofilm formation on 96-well polystyrene plates (XTT); type: cell-based; settings: 96-well polystyrene plates in vitro
# Description: The specificity of interferor peptide F9 was investigated for C. albicans as compared to a distant Candida spp., i.e. Candida glabrata ATCC2001, for biofilm formation inhibition in vitro. The beta-aggregation sequence of the F9 peptide ([…] (SEQ ID NO: 71)) is not present in C. glabrata—the most closely related sequence in C. glabrata is […] (SEQ ID NO: 73). […] We tested the effect of F9 against C. glabrata adhesion and biofilm formation on 96-well polystyrene plates in vitro.
# [6] = test system: Candida albicans SC5314; assay: C. albicans SC5314 adhesion on 96-well polystyrene plates (XTT reduction assay); type: cell-based; settings: 90 min adhesion at 37° C.
# Procedure: In a next step, lower concentrations of peptide F9 (50 μM, 10 μM and 2.5 μM) were also tested. First, we elucidated the effect of peptide F9 during the period of adhesion (90 min at 37° C.). Then, we tested its effect on further biofilm development, by changing the medium with fresh RPMI1640-MOPS, in the absence of peptide for 48 h. Both assays were performed in 96-well polystyrene plates and quantified by the XTT reduction assay (see material and methods section).
# (§1) In vitro C. albicans biofilm was studied on three different types of biomaterials, namely flat bottom 96-well polystyrene plate (Greiner Bio-One, Germany), silicone (CS Hyde, USA) and polyurethane triple lumen intravenous catheters (2.4mm diameter) (Arrow International Reading, USA). […] After that, the biofilms were washed twice with 1×PBS and quantified.
# The metabolic activity of Candida cells within in vitro biofilms was studied using the XTT reduction assay. This method is based on colorimetric change of a specific substrate—XTT (2,3-bis(2-methoxy-4-nitro-5-sulpho-phenyl)-2H-tetrazolium-5-carboxanilide) (Sigma, USA) which is reduced to XTT formazan by mitochondrial dehydrogenases of metabolic active cells measured by spectrophotometer at 490 nm. […] The intensity of colorimetric change was measured by spectrophotometer (Spectra max Plus 384) at 490 nm. […]
# [7] = test system: Candida albicans SC5314; assay: In vitro mature C. albicans biofilm formation on polystyrene (XTT reduction assay); type: cell-based; settings: 250 μM, 50 μM and 10 μM; peptide during adhesion only or during whole biofilm development; p<0.001
# Procedure: The initial screening and search for optimal Als3 candidate interferors was based on the C. albicans SC5314 adhesion assay on 96-well polystyrene plates upon administration of all the peptides at three different concentrations (250 μM, 50 μM and 10 μM). Based on the results obtained with this adhesion assay, we also tested the effect of peptides on mature biofilm development. The final election of the most optimal candidate interferor peptides was based on the results showing reduction in adhesion and mature biofilm formation caused by the lowest concentration of the peptide tested (10 μM or 2.5 μM).
# In a next step, lower concentrations of peptide F9 (50 μM, 10 μM and 2.5 μM) were also tested. […] Both assays were performed in 96-well polystyrene plates and quantified by the XTT reduction assay (see material and methods section).
# as §1
# The metabolic activity of Candida cells within in vitro biofilms was studied using the XTT reduction assay. […] The intensity of colorimetric change was measured by spectrophotometer (Spectra max Plus 384) at 490 nm. […]
sequence,measurement,setting,value
RILLGLIRRGSRILLGLIRR [C30],distribution of the target protein between soluble and insoluble fraction,[1],shifted from soluble into insoluble fraction upon peptide treatment
same,MIC,[2],S. haemolyticus: 1.5 μg/ml
same,MIC,[3],6 µg/mL
same,MIC in presence of 50% FBS,[3],50 µg/mL
same,MIC,"[3]; MRSA 115, planktonic, 18 hours",MRSA 115: 6 μg/ml
same,MIC,"[3]; MRSA 165, planktonic, 18 hours",MRSA 165: 3 μg/ml
same,MIC,"[3]; MRSA 204, planktonic, 18 hours",MRSA 204: 6 μg/ml
same,MIC,"[3]; MRSA 274, planktonic, 18 hours",MRSA 274: 3 μg/ml
same,MIC,"[3]; MRSA 351, planktonic, 18 hours",MRSA 351: 3 μg/ml
same,MIC,"[3]; MRSA 418, planktonic, 18 hours",MRSA 418: 6 μg/ml
same,MIC,"[3]; MRSA 651, planktonic, 18 hours",MRSA 651: 3 μg/ml
same,MIC,"[3]; S. aureus ATCC29213, planktonic, 18 hours",S. aureus ATCC29213: 3 μg/ml
same,MIC,[4]; VRE 8,VRE 8: 3 μg/ml
same,MIC,[4]; VRE 11,VRE 11: 1.5 μg/ml
same,MIC,[4]; VRE 12,VRE 12: 12.5 μg/ml
same,MIC,[4]; VRE 40,VRE 40: 3 μg/ml
same,MIC,[4]; VRE 54,VRE 54: 3 μg/ml
same,MIC,[4]; VRE 60,VRE 60: 3 μg/ml
same,MIC,[4]; VRE 70,VRE 70: 1.5 μg/ml
RKLLFNLGSRNGIVIVATTR [F9],C. glabrata adhesion and biofilm development,[5],did not interfere with C. glabrata adhesion and biofilm development
same,adhesion of C. albicans SC5314 on polystyrene,[6]; 2.5 μM peptide,dramatically decreased adhesion properties of Candida cells
same,adhesion of C. albicans SC5314 on polystyrene,[6]; 50 μM and 10 μM peptide,almost completely abolished Candida attachment
same,biofilm formation (metabolic activity compared to control),[7],significant reduction in biofilm formation
